According to EP2792354A2, “COMPOSITION OF […] ACUTE AND CHRONIC HEPATIC ENCE[…] METHOD FOR TREATING ACUTE AND CHRONIC HEPATIC ENCEPHALOPATHY” (Obshchestvo S Ogranichennoj Otvetstvennostju …, priority 2011, dated 2012):

What was measured:
[1] = type 2 diabetes (D2) mice, CCl4, injections 3 days; alive animals
Procedure: In the experiments, male albino mice weighing 20 - 35 g after 12 hours of fasting. • 1. […] The recommended classification of the stages of HE for laboratory animals was used (116). • 2.1 The models of acute liver failure , resulting in necrosis and fatty degeneration of the liver cells due to oxidative stress , by introducing :CCl4 (2 - 4ml/kg subcutaneously or i.p.); acetaminophen-AAF (300 - 500mg/kg i.p.) or thioacetamide (TAA , 300 - 500mg / kg i.p.), in accordance with known data (103,104,116-118). […] Control the level of glucose, insulin , ALT , bilirubin, glycerol, triglycerides and fatty acids in the blood and in the liver, histological examination of the liver was carried out. • 2.2.2 The model of type 2 diabetes, according to the data of (115), in which after 1 - 2 months of feeding fat, animals were injected i.p. 50mg/kg of streptozotocin (to suppress the activity of β-cells) and then 15 days later , after controlling for the main indicators of the blood ,were used in the experiments.
The comparison of the efficacy of compositions ∑3 and LoLa on the alive diabetic animals treated with CCL4 and protectors used (according to pp.4-6 of Tab.2)

[2] = test system: acute HE, induced by ammonia injection in mice; experiment: CCl4 pretreatment 24 hours before lethal dose of NH4Cl (preconditioning), animal survival; format: in vivo; conditions: CCl4 2 ml/kg wt 24 hours before NH4Cl LD100+; NaCl instead of protector
Procedure: Table 1. […] Introduction of various doses of NH4 (12-14 mmol / kg) at 24 hours after administration of these toxins, can cause the development of acute HE and death of most or all animals. However, this effect depends on the dose used toxins CCl4. It can be seen that low doses of CCl4 (2ml/kg), being administered to intact animals , results in almost total protection against the lethal dose of NH4, resulting in the survival of 80 % of treated animals, i.e. there is the effect of preconditioning.

Structure (SMILES) | AAT plasma [1] [U/L] | Glucose Plasma [1] | LCFA Plasma [1] | % survival [2] [%]
[Cl-].[Na+] [NaCl] | 1540±350 | 13,1±0,8 mMol | 1,55±0,28 mMol | –
ClC(Cl)(Cl)Cl [CCl4] | – | – | – | 80
